Source: paper PMC9220351, “Evaluation of a Conformationally Constrained Indole Carboxamide as a Potential Efflux Pump Inhibitor in Pseudomonas aeruginosa” (Antibiotics, 2022)

Tested on: 34 MDR P. aeruginosa clinical isolates (CDC & FDA AR Isolate Bank)
Assay: microbe, parasite or virus in culture
Format: cell-based, Pseudomonas aeruginosa
Conditions: for Levofloxacin MIC fold difference: + labelled EPI […] (TXA09155 head: 50 µg/mL); for Levofloxacin MIC: alone or + labelled EPI […] (TXA09155 head: 50 µg/mL)
Excerpt: P. aeruginosa ATCC 27853 was obtained from the American Type Culture Collection (ATCC; Manassas, VA, USA). P. aeruginosa multidrug-resistant isolates were obtained from the CDC and FDA Antibiotic Resistance Isolate Bank (Atlanta, GA, USA). P. aeruginosa DA7232 (gyrA-T83I, parC-S80L) was a kind gift from Prof. Dan I. Andersson, Uppsala University, Uppsala, Sweden, and has been characterized elsewhere. P. aeruginosa strains K767 (WT), K1455 (mexAB-oprM overexpressed), K2415 (mexXY-oprM overexpressed), and K3698 (oprM∆) were obtained from Prof. Keith Poole, Queen’s University, Kingston, Ontario, Canada and have been characterized elsewhere. Bacterial cells were grown in cation-adjusted Mueller Hinton (CAMH) media, brain heart infusion broth (BHI), or tryptic soy agar (TSA) plates were all obtained from Becton, Dickinson, and Company (BD; Franklin Lakes, NJ, USA). […] Azithromycin was purchased from Tokyo Chemical Industry (Portland, OR, USA). […] Ethidium bromide (EtBr) and glucose were purchased from VWR (Radnor, PA, USA). MC-04,124 and TXA01182 were synthesized at TAXIS Pharmaceuticals. Carbonyl cyanide 3-chlorophenylhydrazone (CCCP) was purchased from Enzo Life Sciences (Farmingdale, NY, USA). DiOC2 (3) and propidium iodide were obtained from Thermo Fisher Scientific (Waltham, MA, USA).
MIC assays were performed as described previously.

SMILES: NCCC[C@H](N)CNC(=O)c1cc2ccc(-c3ccc(F)cc3)cc2[nH]1 [TXA01182]
- Levofloxacin MIC fold difference (strain AR-0229): 8
- Levofloxacin MIC (strain AR-0229): 8 µg/mL
- Levofloxacin MIC fold difference (strain AR-0230): 4
- Levofloxacin MIC (strain AR-0230): 16 µg/mL
- Levofloxacin MIC fold difference (strain AR-0231): 2
- Levofloxacin MIC (strain AR-0231): 32 µg/mL
- Levofloxacin MIC fold difference (strain AR-0232): 8
- Levofloxacin MIC (strain AR-0232): 1 µg/mL
- Levofloxacin MIC fold difference (strain AR-0233): 8
- Levofloxacin MIC (strain AR-0233): 0.5 µg/mL
- Levofloxacin MIC fold difference (strain AR-0234): 8
- Levofloxacin MIC (strain AR-0234): 1 µg/mL
- Levofloxacin MIC fold difference (strain AR-0236): 4
- Levofloxacin MIC (strain AR-0236): 8 µg/mL
- Levofloxacin MIC fold difference (strain AR-0239): 8
- Levofloxacin MIC (strain AR-0239): 8 µg/mL
- Levofloxacin MIC fold difference (strain AR-0240): 8
- Levofloxacin MIC (strain AR-0240): 16 µg/mL
- Levofloxacin MIC fold difference (strain AR-0241): 4
- Levofloxacin MIC (strain AR-0241): 16 µg/mL
- Levofloxacin MIC fold difference (strain AR-0242): 8
- Levofloxacin MIC (strain AR-0242): 2 µg/mL
- Levofloxacin MIC fold difference (strain AR-0244): 16
- Levofloxacin MIC (strain AR-0244): 8 µg/mL
- Levofloxacin MIC fold difference (strain AR-0245): 4
- Levofloxacin MIC (strain AR-0245): 32 µg/mL
- Levofloxacin MIC fold difference (strain AR-0246): 4
- Levofloxacin MIC (strain AR-0246): 16 µg/mL
- Levofloxacin MIC fold difference (strain AR-0247): 64
- Levofloxacin MIC (strain AR-0247): 0.031 µg/mL
- Levofloxacin MIC fold difference (strain AR-0248): 8
- Levofloxacin MIC (strain AR-0248): 2 µg/mL
- Levofloxacin MIC fold difference (strain AR-0249): 8
- Levofloxacin MIC (strain AR-0249): 8 µg/mL
- Levofloxacin MIC fold difference (strain AR-0250): 4
- Levofloxacin MIC (strain AR-0250): 16 µg/mL
- Levofloxacin MIC fold difference (strain AR-0252): 16
- Levofloxacin MIC (strain AR-0252): 2 µg/mL
- Levofloxacin MIC fold difference (strain AR-0253): 16
- Levofloxacin MIC (strain AR-0253): 0.125 µg/mL
- Levofloxacin MIC fold difference (strain AR-0256): 8
- Levofloxacin MIC (strain AR-0256): 0.062 µg/mL
- Levofloxacin MIC fold difference (strain AR-0258): 4
- Levofloxacin MIC (strain AR-0258): 0.125 µg/mL
- Levofloxacin MIC fold difference (strain AR-0259): 1
- Levofloxacin MIC (strain AR-0259): 0.125 µg/mL
- Levofloxacin MIC fold difference (strain AR-0260): 4
- Levofloxacin MIC (strain AR-0260): 16 µg/mL
- Levofloxacin MIC fold difference (strain AR-0261): 16
- Levofloxacin MIC (strain AR-0261): 0.5 µg/mL
- Levofloxacin MIC fold difference (strain AR-0262): 16
- Levofloxacin MIC (strain AR-0262): 0.25 µg/mL
- Levofloxacin MIC fold difference (strain AR-0264): 8
- Levofloxacin MIC (strain AR-0264): 4 µg/mL
- Levofloxacin MIC fold difference (strain AR-0265): 8
- Levofloxacin MIC (strain AR-0265): 8 µg/mL
- Levofloxacin MIC fold difference (strain AR-0266): 4
- Levofloxacin MIC (strain AR-0266): 8 µg/mL
- Levofloxacin MIC fold difference (strain AR-0267): 16
- Levofloxacin MIC (strain AR-0267): 2 µg/mL
- Levofloxacin MIC fold difference (strain AR-0269): 8
- Levofloxacin MIC (strain AR-0269): 4 µg/mL
- Levofloxacin MIC fold difference (strain AR-0270): 16
- Levofloxacin MIC (strain AR-0270): 2 µg/mL
- Levofloxacin MIC fold difference (strain AR-0271): 4
- Levofloxacin MIC (strain AR-0271): 8 µg/mL
- Levofloxacin MIC fold difference (strain AR-0272): 4
- Levofloxacin MIC (strain AR-0272): 4 µg/mL
